The source made the active and inactive calls. No cut-off for these calls is given here.
Tests used:
Candida albicans = experiment: Antifungal activity against Candida albicans; type: functional, organism-based
Aspergillus fumigatus = experiment: Antifungal activity against Aspergillus fumigatus; type: functional, organism-based
[1] = target: Human immunodeficiency virus type 1 reverse transcriptase (Human immunodeficiency virus 1) (UniProt Q72547); experiment: Inhibition of Human immunodeficiency virus 1 RT assessed at 20 ug after 1 hr by spectrophotometric analysis
Penicillium chrysogenum = experiment: Antifungal activity against Penicillium chrysogenum; type: functional, organism-based
Salmonella typhi = experiment: Antibacterial activity against Salmonella enterica subsp. enterica serovar Typhi; type: functional, organism-based
Aspergillus niger = experiment: Antifungal activity against Aspergillus niger; type: functional, organism-based
Bacillus subtilis = experiment: Antibacterial activity against Bacillus subtilis; type: functional, organism-based

Row | SMILES | Activity (Candida albicans) | Activity (Aspergillus fumigatus) | inhibition [1] [%] | Activity (Penicillium chrysogenum) | Activity (Salmonella typhi) | Activity (Aspergillus niger) | Activity (Bacillus subtilis)
1 | CC(=O)N1CCN(c2ccc(OCC3COC(Cn4ccnc4)(c4ccc(Cl)cc4Cl)O3)cc2)CC1 (centres undefined) | Active | Active |  |  |  |  | 
2 | COc1cc(OC)c2c(C(=O)/C=C(\O)C(=O)O)cn(Cc3ccc(Cl)cc3Cl)c2c1 |  |  | 79.2 |  |  |  | 
3 | COc1ccc(OC)c2c1c(C(=O)/C=C(\O)C(=O)O)cn2Cc1ccc(Cl)cc1Cl |  |  | 82.8 |  |  |  | 
4 | CCOC(=O)/C(O)=C/C(=O)c1cn(Cc2ccc(Cl)cc2Cl)c2c(OC)ccc(OC)c12 | Active | Active | 86.5 | Active | Active | Active | 
5 | CCOC(=O)/C(O)=C/C(=O)c1cn(Cc2ccc(Cl)cc2Cl)c2cc(OC)cc(OC)c12 | Active |  | 87.6 | Active |  |  | Active
6 | CCOC(=O)/C(O)=C/C(=O)c1cn(Cc2ccc(Cl)cc2Cl)c2cc(OC)c(OC)cc12 | Active | Active | 80.9 |  |  |  | Active
7 | CCOC(=O)/C(O)=C/C(=O)c1cn(Cc2ccc(Cl)cc2Cl)c2ccc(OC)c(OC)c12 |  |  | 87.7 | Active |  | Active | Active
8 | COc1cc2c(C(=O)/C=C(\O)C(=O)O)cn(Cc3ccc(Cl)cc3Cl)c2cc1OC |  |  | 78.6 |  |  |  | 
9 | COc1ccc2c(c(C(=O)/C=C(\O)C(=O)O)cn2Cc2ccc(Cl)cc2Cl)c1OC |  |  | 78.2 |  |  |  | 

Reference: ChEMBL document CHEMBL3045871, “Synthesis, biological screening and ADME prediction of benzylindole derivatives as novel anti-HIV-1, anti-fungal and anti-bacterial agents” (Med Chem Res, 2013)
